Results: patent US20220096516A1, “OLIGONUCLEOTIDE MOLECULE AND APPLICATION THEREOF IN TUMOR THERAPY” (Ractigen Therapeutics, priority 2019, published 2022)
d = 2'-deoxy (DNA); r = 2'-OH (RNA)

Experiments:
U87MG transplanted tumor = U87MG transplanted tumor growth in nude mice; set-up: species or system BALB/c nude mice; conditions: U87MG xenograft, day 13; saRNA (in vivo-jetPEI) 1 mg/kg intratumor days 1, 4, 7, 10; regorafenib 3 mg/kg intragastric daily day 1-12; control 406%
Method: To prepare the saRNA formulation, in vivo-jetPEI (201-10G, Polyplus-transfection, France) was adopted as an saRNA delivery system. The preparation process is briefly described as follows: an saRNA was first diluted in a 10% glucose solution to give a solution A; a required amount of in vivo-jetPEI was diluted in 10% glucose solution to give a solution B; then, equal volumes of the solution A and the solution B were mixed (nitrogen-to-phosphorus ratio: 8; final concentration of glucose: 5%). After mixing the mixture was let to stand under room temperature for 15 minutes for later use.
The glioma cell line U87MG were grown to the logarithmic phase, counted, then subcutaneously inoculated at a concentration of 9×10^7 cells/mL into the right armpit of BALB/c nude mice at 0.1 mL per mouse. […] After the initial administration, the long diameter and short diameter of each tumor were measured with a vernier caliper every two days. The tumor volume was calculated according to the formula V=(l×w^2)/2, wherein 1 represents the longest diameter of the tumor and w represents the diameter parallel to the surface of the tumor and perpendicular to the long diameter. A tumor growth curve and size and morphology of the tumor anatomy were recorded during the administration.

SK-HEP-1 cells = test: Cell viability by CCK-8 method, SK-HEP-1; assay type: cell-based, human; conditions: SK-HEP-1, 10 nM, 72 h, FIG. 6B
Method: (§1) 8 LHPP promoter-targeting saRNAs were individually transfected into liver cancer cells at 10 nM for 72 h. In FIG. 6A, the expression level of LHPP mRNA was analyzed by RT-qPCR. In FIG. 6B, cell viability in the saRNA treatment group was evaluated by the CCK-8 method and recorded as a percentage relative to the viability of cells in a control (Mock) treatment group.
(§2) The cell viability was detected by the following CCK-8 method: the cCells were plated into a 96-well plate at 3-5×10^3 cells/well, cultured overnight, and transfected with the oligonucleotide duplexes. After 72 hour of transfection, 10 uL of CCK-8 solution (Dojindo Molecular Technologies) was added into each well. After 1 hour of incubation at 37° C., a microplate reader was used to measure absorbances at 450 nm. […]

[1] = tested on: bladder cancer cell line T24; test: Cell viability by CCK-8 method, T24; assay type: cell-based, human; conditions: T24, 10 nM, 72 h, FIG. 7B
Method: as §1, with “into” for “into liver”, “7A,” for “6A,”, “7B,” for “6B,”
(§3) The cell viability was detected by the following CCK-8 method: the cCells were plated into a 96-well plate at 3-5×10^3 cells/well, cultured overnight, and transfected with the oligonucleotide duplexes. After 72 hour of transfection, 10 uL of CCK-8 solution (Dojindo Molecular Technologies) was added into each well. After 1 hour of incubation at 37° C., a microplate reader was used to measure absorbances at 450 nm.
(§4) In order to further evaluate the effect of LHPP saRNAs in inducing the mRNA expression of the LHPP gene and inhibiting the proliferation of cancer cells, eight screened saRNAs (RAG7-132, RAG7-133, RAG7-139, RAG7-177, RAG7-178, RAG7-694, RAG7-707 and RAG7-892) each were transfected into the liver cancer cell lines Huh7 (Medical Cell Resource Center, Tohoku University, Japan), HepG2 (ATCC), Hep3B (ATCC), Li-7 (Medical Cell Resource Center, Tohoku University, Japan) and SK-HEP-1 (ATCC), a lung cancer cell line A549 (ATCC), a bladder cancer cell line T24 (ATCC), a prostatic cancer cell line PC3 (ATCC), and a glioma cell line U87MG (ATCC). The mRNA expression and cell viability of the transfected cells were measured.

U87MG cells = test: saRNA in combination with chemical drugs, CCK-8 viability and combination index (Compusyn), U87MG; assay type: cell-based, human
Method: The sRNAs were transfected into cancer cells at different concentrations in combination with different chemical drugs. In FIG. 9A, cell viability in the saRNA treatment group was evaluated by the CCK-8 method and recorded as a percentage relative to the viability of cells in a control (Mock) treatment group. In FIG. 9B, Compusyn© version 1.0 software was used to draw a combination index graphs; and to calculate combination index values as shown in FIG. 9C.
The compounds used in the study included: Sorafenib (Sora) (SELLECK, S1040), Lenvatinib (Lenv) (SELLECK, S1164), Regorafenib (Rego) (SELLECK, S1178), and Cabozantinib (Cabo) (SELLECK, S1119). Cells were transfected with each candidate saRNAs at varying concentration gradients for 24 hours. Thereafter, the aforementioned compounds were added to the transfected cells at a concentration of 5 μM and the cells were incubated with the compounds for 48 hours. Cell viability was measured using the CCK-8 method. Compusyn© version 1.0 software (ComboSyn, Inc. Paramus, N.J., USA) was used to analyze the combination index (CI) of drugs, wherein CI<1 represented a synergistic effect, CI=1 represented an additive effect, and CI>1 represented an antagonistic effect.

Huh7 cells = test: Cell viability by CCK-8 method, Huh7; assay type: cell-based, human; conditions: Huh7, 10 nM, 72 h, FIG. 6B
Method: The 290 saRNAs targeting the LHPP promoter were individually transfected into Huh7 cells, and 72 hour later, one-step RT-qPCR was employed to analyze the expression levels of LHPP mRNA and cell viability was detected by the CCK-8 method.
as §3, §4

glioma cell line U87MG = test: Cell viability by CCK-8 method, U87MG; assay type: cell-based, human; conditions: 10 nM, 72 h, FIG. 7B
Method: as §1, with “into” for “into liver”, “7A,” for “6A,”, “7B,” for “6B,”
as §3, §4

LHPP gene = test: LHPP mRNA expression by RT-qPCR in cancer cell lines; assay type: cell-based, human; conditions: 72 h
Method: as §1
as §1, with “into” for “into liver”, “7A,” for “6A,”, “7B,” for “6B,”
as §4

HepG2 cells = test: Cell viability by CCK-8 method, HepG2; assay type: cell-based, human; conditions: HepG2, 10 nM, 72 h, FIG. 6B
Method: as §1, §2

RAG7-133: saRNA duplex; sense GCUCUUUGUCCGCUGAUCUTT (SEQ ID NO: 1), antisense AGAUCAGCGGACAAAGAGCTT (SEQ ID NO: 165) (sugars from the 5' end r19 d2, backbone not given here)
tumor volume increase compared with that at the beginning of treatment (U87MG transplanted tumor): 167% | cell proliferation (cell viability, CCK-8) (SK-HEP-1 cells): inhibited cell proliferation | cell proliferation (cell viability, CCK-8) [1]: inhibited cell proliferation | combination index (CI) (U87MG cells; saRNA 1.0 nM to 100 nM with Cabozantinib 5 μM): < 0.1 | combination index (CI) (U87MG cells; saRNA 1.0 nM to 100 nM with Lenvatinib 5 μM): < 0.1 | combination index (CI) (U87MG cells; saRNA with all the four compounds (Sorafenib, Lenvatinib, Regorafenib, Cabozantinib) 5 μM): < 1 | cell proliferation (cell viability, CCK-8) (Huh7 cells): inhibited cell proliferation | cell proliferation (cell viability, CCK-8) (glioma cell line U87MG): inhibited cell proliferation | expression of LHPP gene (mRNA) (LHPP gene; Hep3B, 10 nM, FIG. 6A): induced the expression of LHPP gene to different degrees | expression of LHPP gene (mRNA) (LHPP gene; HepG2, 10 nM, FIG. 6A): induced the expression of LHPP gene to different degrees | expression of LHPP gene (mRNA) (LHPP gene; Huh7, 10 nM, FIG. 6A): induced the expression of LHPP gene to different degrees | expression of LHPP gene (mRNA) (LHPP gene; Li-7, 10 nM, FIG. 6A): induced the expression of LHPP gene to different degrees | expression of LHPP gene (mRNA) (LHPP gene; PC3, 10 nM, FIG. 7A): induced the expression of LHPP gene to different degrees | expression of LHPP gene (mRNA) (LHPP gene; SK-HEP-1, 10 nM, FIG. 6A): induced the expression of LHPP gene to different degrees | expression of LHPP gene (mRNA) (LHPP gene; T24, 10 nM, FIG. 7A): induced the expression of LHPP gene to different degrees | expression of LHPP gene (mRNA) (LHPP gene; U87MG, 10 nM, FIG. 7A): induced the expression of LHPP gene to different degrees | cell proliferation (cell viability, CCK-8) (HepG2 cells): inhibited cell proliferation
